Reference: ChEMBL document CHEMBL4118210, “Synthesis of novel hetero ring fused pyridine derivatives; Their anticancer activity, CoMFA and CoMSIA studies” (Bioorg Med Chem Lett, 2018)

Key:
[1] = system: COLO 205; test: Antiproliferative activity against human COLO205 cells by MTT assay; assay type: functional, cell-based
[2] = system: HEK293; test: Antiproliferative activity against human HEK293 cells by MTT assay; assay type: cell-based
[3] = system: HeLa; test: Antiproliferative activity against human HeLa cells by MTT assay; assay type: functional, cell-based
[4] = system: MCF7; test: Antiproliferative activity against human MCF7 cells by MTT assay; assay type: functional, cell-based
[5] = system: HepG2; test: Antiproliferative activity against human HepG2 cells by MTT assay; assay type: functional, cell-based

Row | SMILES | IC50 ([1]; read-out: IC50) | IC50 ([1]; read-out: pIC50 (converted)) | IC50 [2] | IC50 ([3]; read-out: IC50) | IC50 ([3]; read-out: pIC50 (converted)) | IC50 ([4]; read-out: IC50) | IC50 ([4]; read-out: pIC50 (converted)) | IC50 [5]
1 | CCCn1c(C)nc2c(oc3nc(-c4cccs4)cc(C(F)(F)F)c32)c1=O | 18.9 µM | 19.1 µM | 68 µM | 28.5 µM | 28.8 µM | 31.5 µM | 31.6 µM | 22.8 µM
2 | CNC(=O)c1oc2nc(-c3cccs3)cc(C(F)(F)F)c2c1N | 17.8 µM | 17.8 µM | 75 µM | 15.6 µM | 15.5 µM | 18 µM | 18.2 µM | 12.3 µM
3 | CCCNC(=O)c1oc2nc(-c3ccccc3)cc(C(F)(F)F)c2c1N | 38.9 µM | 38.9 µM | 81 µM | 36.1 µM | 36.3 µM | 35.6 µM | 35.5 µM | 37.4 µM
4 | O=c1[nH]cc(F)c(=O)[nH]1 [FLUOROURACIL] | – | – | 19.6 µM | – | – | – | – | 1.7 µM
5 | CCNC(=O)c1oc2nc(-c3cccs3)cc(C(F)(F)F)c2c1N | 18.7 µM | 18.6 µM | 62 µM | 14.2 µM | 14.1 µM | 21.8 µM | 21.9 µM | 12.1 µM
6 | CCn1c(C)nc2c(oc3nc(-c4cccs4)cc(C(F)(F)F)c32)c1=O | > 220 mg/L | – | > 220 mg/L | > 220 mg/L | – | > 220 mg/L | – | > 220 mg/L
7 | CCCn1cnc2c(oc3nc(-c4ccccc4)cc(C(F)(F)F)c32)c1=O | > 220 mg/L | – | 90 µM | > 220 mg/L | – | 85.5 µM | 85.1 µM | > 220 mg/L
8 | Cn1cnc2c(oc3nc(-c4cccs4)cc(C(F)(F)F)c32)c1=O | > 220 mg/L | – | > 220 mg/L | > 220 mg/L | 50.1 µM | > 220 mg/L | – | > 220 mg/L
9 | Cc1ccc(/C=N/n2cnc3c(oc4nc(-c5cccs5)cc(C(F)(F)F)c43)c2=O)cc1 | > 220 mg/L | – | > 220 mg/L | 42.3 µM | 42.7 µM | 29.7 µM | 29.5 µM | > 220 mg/L
10 | O=c1c2oc3nc(-c4ccccc4)cc(C(F)(F)F)c3c2ncn1/N=C/c1ccccc1 | > 220 mg/L | – | > 220 mg/L | > 220 mg/L | – | > 220 mg/L | – | > 220 mg/L
11 | CCCn1cnc2c(oc3nc(-c4cccs4)cc(C(F)(F)F)c32)c1=O | > 220 mg/L | – | > 220 mg/L | > 220 mg/L | – | > 220 mg/L | – | > 220 mg/L
12 | Nc1c(C(=O)N/N=C/c2ccc(Cl)cc2)oc2nc(-c3ccccc3)cc(C(F)(F)F)c12 | 11.1 µM | 11.2 µM | 81 µM | 4.1 µM | 4.07 µM | 11.9 µM | 12 µM | 12.1 µM
13 | Cn1cnc2c(oc3nc(-c4ccccc4)cc(C(F)(F)F)c32)c1=O | > 220 mg/L | 9.77 µM | > 220 mg/L | > 220 mg/L | – | > 220 mg/L | – | 221 µM
14 | Cc1ccc(/C=N/NC(=O)c2oc3nc(-c4ccccc4)cc(C(F)(F)F)c3c2N)cc1 | 9.1 µM | 9.12 µM | 69 µM | 11.8 µM | 11.7 µM | 10.2 µM | 10.2 µM | 8.9 µM
15 | O=c1c2oc3nc(-c4cccs4)cc(C(F)(F)F)c3c2ncn1/N=C/c1ccccc1 | > 220 mg/L | – | 90 µM | 42.3 µM | 42.7 µM | > 220 mg/L | – | > 220 mg/L
16 | O=c1c2oc3nc(-c4ccccc4)cc(C(F)(F)F)c3c2ncn1/N=C/c1ccc(Cl)cc1 | 43.6 µM | 43.7 µM | > 220 mg/L | > 220 mg/L | – | 56.8 µM | 57.5 µM | > 220 mg/L
17 | Nc1c(C(=O)N/N=C/c2ccccc2)oc2nc(-c3cccs3)cc(C(F)(F)F)c12 | 9.7 µM | – | 72 µM | 11.8 µM | 11.7 µM | 12.1 µM | 12 µM | 9.9 µM
18 | Cc1ccc(/C=N/NC(=O)c2oc3nc(-c4cccs4)cc(C(F)(F)F)c3c2N)cc1 | 21.2 µM | 10.2 µM | 78 µM | 24.4 µM | 9.12 µM | 18.7 µM | 11.2 µM | 19.8 µM
19 | CCNC(=O)c1oc2nc(-c3ccccc3)cc(C(F)(F)F)c2c1N | 29.2 µM | 28.8 µM | 70 µM | 36.2 µM | 36.3 µM | 54 µM | 53.7 µM | 42.8 µM
20 | O=c1c2oc3nc(-c4ccccc4)cc(C(F)(F)F)c3c2ncn1/N=C/c1ccc(Br)cc1 | > 220 mg/L | – | > 220 mg/L | > 220 mg/L | – | > 220 mg/L | – | > 220 mg/L
21 | Cc1nc2c(oc3nc(-c4ccccc4)cc(C(F)(F)F)c32)c(=O)n1C1CCCC1 | 18.7 µM | 18.6 µM | 96 µM | 18.2 µM | 18.2 µM | 22.8 µM | 22.9 µM | 17.1 µM
22 | Nc1c(C(=O)N/N=C/c2ccc(Cl)cc2)oc2nc(-c3cccs3)cc(C(F)(F)F)c12 | 7.8 µM | 7.94 µM | 83 µM | 8 µM | 7.94 µM | 7.4 µM | 7.41 µM | 8.1 µM
23 | CCn1c(C)nc2c(oc3nc(-c4ccccc4)cc(C(F)(F)F)c32)c1=O | > 220 mg/L | – | > 220 mg/L | > 220 mg/L | – | > 220 mg/L | – | > 220 mg/L
24 | Nc1c(C(=O)N/N=C/c2ccccc2)oc2nc(-c3ccccc3)cc(C(F)(F)F)c12 | 12.2 µM | 12.3 µM | 70 µM | 13.4 µM | 13.5 µM | 14.2 µM | 14.1 µM | 13.1 µM
25 | Nc1c(C(=O)N/N=C/c2ccc(Br)cc2)oc2nc(-c3cccs3)cc(C(F)(F)F)c12 | 5.9 µM | 5.89 µM | 86 µM | 6.4 µM | 6.46 µM | 5.2 µM | 5.25 µM | 6.1 µM
26 | O=c1c2oc3nc(-c4cccs4)cc(C(F)(F)F)c3c2ncn1C1CCCC1 | 42.5 µM | 42.7 µM | > 220 mg/L | 50.2 µM | – | 62.7 µM | 63.1 µM | 49.8 µM
27 | Nc1c(C(=O)N/N=C/c2ccc(Br)cc2)oc2nc(-c3ccccc3)cc(C(F)(F)F)c12 | 21.2 µM | 21.4 µM | 64 µM | 23.9 µM | 24 µM | 18.7 µM | 18.6 µM | 19.9 µM
28 | CCCn1c(C)nc2c(oc3nc(-c4ccccc4)cc(C(F)(F)F)c32)c1=O | > 220 mg/L | – | 52 µM | > 220 mg/L | – | 117 µM | 117 µM | > 220 mg/L
29 | O=c1c2oc3nc(-c4ccccc4)cc(C(F)(F)F)c3c2ncn1C1CCCC1 | > 220 mg/L | – | > 220 mg/L | > 220 mg/L | – | > 220 mg/L | – | > 220 mg/L
30 | CCCNC(=O)c1oc2nc(-c3cccs3)cc(C(F)(F)F)c2c1N | 15.3 µM | 15.5 µM | 64 µM | 18.9 µM | 19.1 µM | 20.4 µM | 20.4 µM | 17.2 µM
